EP2106802A1, “Modified peptides as synthetic vaccines in amyloid-associated disease” (SIGMA-TAU Industrie Farmaceutiche Riunite S.p.A., priority 2008, dated 2009)
No end group written: not given here.

Assays:
[1] = active vaccination, APP transgenic mice; cited from earlier work
[2] = phase II studies, patients who received the vaccine; cited from earlier work
[3] = test system: T lymphocytes expressing CXCR5 in PBMCs of healthy donors; assay: CXCR5 expression in T-lymphocytes after peptide stimulation (flow cytometry); assay type: cell-based, human; details: for Percentage of T-lymphocytes expressing CXCR5, 1st and 3rd quartine: 1st and 3rd quartile of 10 donors; for expression of CXCR5 with respect to CTR: T-lymphocytes, Friedman test, result in words; for Percentage of T-lymphocytes expressing CXCR5: peptides 5ug/ml, 4 days after third stimulation; for Percentage of T-lymphocytes expressing CXCR5, Median: median of 10 donors, * P = <0,001 (Friedman)
Experimental: In order to evaluate the expression of a specific marker (CXCR5) in cultured […], the cells, 4 days after the third stimulation, were washed twice and stained with anti-CXCR5, in PBS supplemented with 0.5% FCS and 0.01%NaN3 at 4°C. After twenty minutes they were washed twice and analysed on FACSCanto flow cytometer (Becton Dickinson). The data were analyzed using FlowJo software (TreeStar, CA, USA).
Table 3. The CXCR5 expression measured as % of T lymphocytes expressing CXCR5 in PBMCs of healthy donors vs total lymphocytes (median, 1st and 3rd quartile) has been reported. Friedman Repeated Measures Analysis of Variance on Ranks has been performed. Column 1: number of different donors (Pz); column 2: the percentage of control (CTR) not challenged T lymphocytes expressing CXCR5; columns 3-12: the percentage of T lymphocytes expressing CXCR5 after the stimulation with different peptides.
CXCR5, a chemokine transmembrane receptor belonging to the CXC chemokine receptor family plays an essential role in B cell activation (Legler D.F., et al., J. Exp. Med., 1998, 187, 4, 655). The CXCR5 expression was measured as % of T-lymphocytes expressing CXCR5 versus total lymphocytes (median, 1st and 3rd quartile) and Friedman Repeated Measures Analysis of Variance on Ranks was performed.

Experimental for IFN-γ: To do this, the T-lymphocytes form peripheral blood mononuclear cells (PBMCs) response to Aβ[1-42] and Aβ[1-16], Aβ[1-16]-G, Aβ[1-16]+G, Aβ[13-28], Aβ[13-28]-G, Aβ[13-28]+G, Aβ[25-42], Aβ[25-42]-G, Aβ[25-42]+G was studied with the following experimental procedure:
In order to obtain mature dentritic cells, PBMCs from healthy donors were isolated by Ficoll-Hypaque gradient centrifugation (Pharmacia, Uppsala, Sweden). The cells were washed twice with PBS and finally were cultured at 10^6 cells/ml in RPMI 1640 supplemented with 10% (v/v) heat inactivated human serum (Bio Whittaker; Cambrex, Bioscience, Walkersville, MD Usa), 2mM L-glutamine, 20mM HEPES [N-2-hydroxyethylpiperazine-N'-2-ethanesulfonic acid], 1mM sodium pyruvate, 20mM non-essential amino acids, 55 µM 2-β-mercaptoethanol, 10 U/ml penicillin and streptomycin (Gibco and Invitrogen).
In order to obtain a pure culture of human peripheral blood monocytes, cells were purified by plastic adherence at 37°C for 30 minutes, followed by extensive washing with warm PBS to remove non-adherent cells. The monocytes were cultured in six-well plates (0,5 to 1,5 * 10^6 cells/m) in fresh complete medium supplemented with 1000U/ml of recombinant granulocyte-macrophage colony-stimulating factor (rGM-CSF) and 500U/ml interleukin-4 (IL-4, Pharmigen) for four days. The non-adherent mononuclear cells were washed repeatedly and cultured in 96-well round bottom plates (Nunc, Denmark) (10^6 cell/ml) in complete culture medium supplemented with interleukin-2 (IL-2; 5U/ml; Roche) for 4 days and used for subsequent studies. Monocytes-derived immature dendritic cells (DCs) were stimulated with the Aβ[1-16], Aβ[1-16]-G, Aβ[1-16]+G, Aβ[13-28], Aβ[13-28]-G, Aβ[13-28]+G, Aβ[25-42], Aβ[25-42]-G, Aβ[25-42]+G and Aβ[1-42] peptides (5ug/ml) for 1 day. For induction of dentritic cells (DC) maturation, the cells were stimulated with 50ng/ml TNFα (Pharmigen), 10ng/ml IL-6, 10ng/ml IL-1β, and 1µg/ml PGE2 for additional 2 days. Finally, they were cultured with autologous T-lymphocytes in 96-well flat bottom plates at a 1:4 ratio. A second stimulation with mature autologous monocyte-derived DC's previously stimulated with the peptides was performed at 10-14 days at the same ratios. Following further 10-14 days, lymphocytes were labelled with CFDA challenged with a third stimulation of monocyte-derived DC in the presence of peptides.
In order to evaluate the amount of IFN-γ produced by lymphocytes after the final third peptides stimulation the supernatants from cultured cells were harvested at 24 or 48 hr after the third stimulation. Cytokines were quantified by a standard-2-site sandwich enzyme-liked immunosorbent assay (ELISA). Abs for human IFN-γ were purchased from Pharmigen. Enhanced protein-binding ELISA plates (Nunc Maxisorb, Nunc Maxi, Roskilde, Denmark) were used.

Row | Substance | amyloid pathology [1] | patients who developed meningoencephalitis [2] | production of IFN-γ in challenged T-lymphocytes (IFN-γ) | Percentage of T-lymphocytes expressing CXCR5, 1st and 3rd quartine [3] | expression of CXCR5 with respect to CTR [3] | Percentage of T-lymphocytes expressing CXCR5 ([3]; donor Pz1) | Percentage of T-lymphocytes expressing CXCR5 ([3]; donor Pz2) | Percentage of T-lymphocytes expressing CXCR5 ([3]; donor Pz3) | Percentage of T-lymphocytes expressing CXCR5 ([3]; donor Pz4) | Percentage of T-lymphocytes expressing CXCR5 ([3]; donor Pz5) | Percentage of T-lymphocytes expressing CXCR5 ([3]; donor Pz7) | Percentage of T-lymphocytes expressing CXCR5, Median [3] | Percentage of T-lymphocytes expressing CXCR5 ([3]; donor Pz6) | Percentage of T-lymphocytes expressing CXCR5 ([3]; donor Pz8) | Percentage of T-lymphocytes expressing CXCR5 ([3]; donor Pz9) | Percentage of T-lymphocytes expressing CXCR5 ([3]; donor Pz10)
1 | AN1792: aggregated Aβ[1-42], first βA active vaccination (Pharmaceuticals Inc/Wyeth Pharmaceuticals) | showed improvement in amyloid pathology | about 6% | – | – | – | – | – | – | – | – | – | – | – | – | – | –
2 | GGNGGGIGGGMGGGVGIG [Seq.10] | – | – | statistically significative production of IFN-γ | – | – | – | – | – | – | – | – | – | – | – | – | –
3 | Seq.1: Aβ[1-42] synthetic peptide, neurotoxic β amyloid peptide [reference compound] | – | – | statistically significative production of IFN-γ | 8.6-40.2% | statistically different expression of CXCR5 with respect to CTR | 19.06% | 15.07% | 68.0% | 0.09% | 8,6% | 13,3% | 17.7* % | – | – | – | –
4 | Seq.3: Aβ[1-16] fragment modified by introduction of glycines in alternate positions, at odd positions (-G) (GAGFGHGSGYGVGHGK) | – | – | statistically significative production of IFN-γ | 14.1-39.9% | statistically different expression of CXCR5 with respect to CTR | 16.05% | 20.05% | 64.01% | 2.09% | 9,5% | 14,7% | 30.6* % | 6,9% | 40.06% | 35.03% | 36.00%
5 | Seq.5: Aβ[13-28] fragment of the Aβ[1-42] sequence (HHQKLVFFAEDVGSNK) | – | – | statistically significative production of IFN-γ | 8.5-30.4% | statistically different expression of CXCR5 with respect to CTR | 15.05% | 23.05% | 12.08% | 1.02% | 8,5% | 13,5% | 14.5* % | 7,4% | 45.01% | 33.00% | 30.04%
6 | Seq.6: Aβ[13-28] fragment modified by introduction of glycines in alternate positions, at odd positions (-G) (GHGKGVGFGEGVGSGK) | – | – | statistically significative production of IFN-γ | 11.3-39.9% | statistically different expression of CXCR5 with respect to CTR | 22.04% | 23.03% | 25.09% | 0% | 13,4% | 14,6% | 21.7* % | 7,3% | 43.03% | 31.03% | 29.05%
7 | Seq.8: Aβ[25-42] fragment of the Aβ[1-42] sequence (GSNKGAIIGLMVGGVVIA) | – | – | statistically significative production of IFN-γ | 8.2-36.7% | statistically different expression of CXCR5 with respect to CTR | 19.00% | 13.06% | 64.04% | 0.08% | 8,2% | 15,8% | 17.4* % | 7,3% | 45.00% | 36.07% | 36.00%
8 | Seq.9: Aβ[25-42] fragment modified by introduction of glycines in alternate positions, at odd positions (-G) (GSGKGAGIGLGVGGGVGA) | – | – | statistically significative production of IFN-γ | 9.2-33.4% | statistically different expression of CXCR5 with respect to CTR | 23.01% | 15.02% | 11.03% | 0.08% | 11,3% | 13,4% | 14.9* % | 7,5% | 61.07% | 36.01% | 34.06%
